# Measured values reported in a melting point compilation (Tetko et al.; mined from patent text by program, amines drawn as free bases though some values may be those of a salt).
row,Structure (SMILES),melting point [°C]
1,Cc1nc(OCCCCn2cncn2)c([N+](=O)[O-])c(N2CCc3ccccc3CC2)n1,88 to 91
2,O=c1n(CCCF)nnn1-c1cc([N+](=O)[O-])c(Cl)cc1F,80 to 81
3,N#Cc1[nH]c2ccccc2c1Cl,150 to 154
4,N#Cc1nn(-c2c(Cl)cc(C(F)(F)F)cc2Cl)c([N+](=O)[O-])c1OC(F)F,72.5 to 74
5,COc1ccc(COC(=O)CC(=O)Oc2ccc(-c3cn4c(n3)sc3ccccc34)cc2)cc1,117 to 119
6,CCc1cc(C(=O)c2ccccc2Cl)c(-n2c(CNC(=O)c3ccc(Cl)c(Cl)c3)nnc2C2CCCCC2)s1,206 to 208
7,CCCCCCNC(=O)Oc1ccc2ncccc2c1,89
8,COC(=O)c1cc(O)c2cc(OC)ccc2c1,193 to 195
9,O=C(Cc1ccc(I)cc1)N1CCOCC1,114 to 117
10,O=C(O)Cn1cc(Cc2nc3c(F)c(F)cc(F)c3s2)c2ccccc21,177 to 178
11,CCCOc1nsc(N=CN(C)C)c1C#N,117 to 118
12,CCC1(C)NC(=O)C(CCSC)O1 (stereo unspecified),62
13,CNc1cc(O)cc(O)c1,130
14,O=C(Nc1cccc(F)c1F)c1ccc(-n2nc(C(F)(F)F)cc2C2CC2)c(F)c1,175 to 180
15,Cc1cc(-n2c(C)ccc2-c2ccc(S(C)(=O)=O)cc2)ccc1-c1ccoc1,69 to 75
16,CCc1nn(CC#N)c(CC)c1Oc1cc(Cl)cc(Cl)c1,70 to 72
17,CCC1(CC)c2cc(Br)ccc2-c2ccc(Br)cc21,144 to 153
18,CS(=O)(=O)N1CCC(C2=C(C#N)C(c3cccc(C#N)c3Br)c3c[nH]nc3N2)CC1 (stereo unspecified),> 280
19,O=C1CC2(CCCCC2)CN1O,110
20,O=C(NCc1ccc(Cl)cc1)c1cn2c(CCCO)cc3cc(CN4CCOCC4)cc(c1=O)c32,171 to 174
21,COc1cc(Oc2cccc(C(F)(F)F)c2)nc(C(=O)NC=C(Cl)Cl)c1,123 to 125
22,COc1cc(CCc2ccc(N)cc2)cc(OC)c1OC,84 to 85
23,CN1CCC(O)(c2cccn2C)CC1,123 to 124
24,Cc1c(C)c2c(c(C)c1OCC=Cc1ccccc1)C(c1ccc(C(C)C)cc1)C(C)(C)O2 (stereo unspecified),106 to 107

row,Structure (SMILES),melting point [°C]
1,COc1cc(C(=O)O)c(-c2cc3cc(O)ccc3[nH]2)cc1OC,160
2,C[Si]1(C)CCCCCCCCCC[Si](C)(C)O[Si](C)(C)CCCCCCCCCC[Si](C)(C)O1,90
3,CC(C)(C)OC(=O)N1CCC(C#N)(c2cccc(C(F)(F)F)c2)CC1,72 to 73
4,FC(F)(F)Cn1c(-c2c(Cl)cccc2Cl)nc(-c2ccncc2)c1-c1ccc(Cl)cc1,213 to 214
5,COc1cc2c(cc1OC)/C(=N/OCc1ccc([N+](=O)[O-])cc1)CCC2,124 to 127
6,OC(CCCN1CCN(c2ncc(F)cn2)CC1)(c1ccc(F)cc1)C1CCCCC1 (stereo unspecified),53 to 59
7,Cn1nc2c(cc1=O)CCc1cc(O)ccc1-2,> 300
8,CCCCc1nc(=O)c2cc(C#C[Si](C)(C)C)c(F)cc2[nH]1,192
9,O=c1c(-c2ccccc2)c(SCc2ccncc2)oc2cc(OCc3ccccc3)ccc12,169 to 170
10,CCC(O)C(=O)Nc1c(C)c(C)c2c(c1C)C(c1ccc(C(C)C)cc1)CO2 (stereo unspecified),146 to 147
11,C=CC=CN(C(=O)CCl)c1c(C)cccc1C,88
12,CCCC[C@H](NS(=O)(=O)c1ccc(Br)cc1)C(=S)Nc1ccc(CCC(=O)O)cc1,174 to 176
13,N#Cc1c(N2CC[C@@H](C3(N)CC3)C2)ccc2c(=O)c(C(=O)O)cn([C@@H]3C[C@@H]3F)c12,138 to 140
14,COc1cc(COc2nn(-c3ccccc3)cc2/C=C\c2csc(C)n2)ccc1OCc1nc(-c2ccco2)oc1C,111 to 112
15,Clc1ncc(-c2ccccc2)cn1,130 to 132
16,O=C(O)C[C@H](NC(=O)CNC(=O)c1csc(NC(=O)NCc2ccccn2)n1)C(=O)NCc1ccccn1,164
17,Cc1nc(C=O)c(C)[nH]1,164 to 166
18,CC1CC(NC(=O)C(F)(F)F)=NN1c1ccc(C(=O)C(F)(F)F)cc1 (stereo unspecified),189 to 190
19,N#Cc1ccc(OCCOc2ccc(C#N)cc2)cc1,196 to 197
20,NC(=O)[C@@H]1[C@H](Nc2c(Br)cnc3[nH]c(-c4cccc(N5CCOCC5)c4)nc23)[C@H]2C=C[C@@H]1C2,232 to 234
21,C=CCn1nnc2cc3c(=O)n(C(C)Cn4ncnn4)nnc3cc2c1=O (stereo unspecified),159 to 161
22,CC(C)(C)[Si](C)(C)N1C(=O)CC1SC(c1ccccc1)(c1ccccc1)c1ccccc1 (stereo unspecified),113 to 114
23,O=c1[nH]nc(-c2ccc(OC3CCN(C4CCC4)CC3)cc2)c2c1CCC2,210 to 213
24,O=C(Nc1cccc(-c2ccnc3c(C(=O)c4cccs4)cnn23)c1)c1c(Cl)cccc1Cl,245 to 246

row,Structure (SMILES),melting point [°C]
1,COc1ccc(-c2nnc3c4ccccc4c(Nc4ccc(NC(=O)c5ccc(N6CCOCC6)cc5)cc4)nn23)cc1,313
2,CC(C)(C)NC1CCCCC1O (stereo unspecified),42 to 44
3,Cc1cccc(C)c1NCCNCC(O)COc1cccc2[nH]ncc12 (stereo unspecified),127 to 128
4,COc1ccc2cc3c(CN)nn(C)c3nc2c1,119 to 120
5,Cc1nc2c(cc1Cl)C(=O)N(C)CC(CCCl)O2 (stereo unspecified),65 to 69
6,COc1cc2nc(N)nc(-c3cccc(CO)c3)c2cc1OC,230 to 232
7,COc1c(N)nc(Cl)nc1Cl,155 to 156
8,O=C(NNc1ccccc1)N1CCN2C(=O)OC(c3ccccc3)(c3ccccc3)C2C1 (stereo unspecified),227 to 228
9,Cc1onc(-c2ccccc2)c1C(=O)NCCCN1CCN(c2ccccc2OCC(F)(F)F)CC1,124 to 125
10,C=C1C=C(Oc2cc(C(=O)OC)ccc2OC)C1(F)F,60 to 62
11,Clc1ccc(N2CCN(Cc3c[nH]c4ncccc34)CC2)cc1,226 to 227
12,CC(c1oc2ccccc2c(=O)c1-c1cccc(F)c1)n1nc(-c2cccc3c2oc2ccccc23)c2c(N)ncnc21 (stereo unspecified),238 to 240
13,CCCc1cc(O)nc(C(Cl)(Cl)Cl)n1,107 to 110
14,Cc1ccc([N+](=O)[O-])c(CC2NC(=O)NC2=O)c1C (stereo unspecified),172 to 174
15,C=CC(=O)c1cc(OC)c(OC)c(OC)c1,46 to 47
16,CC(C)c1cc(Oc2ccc(Cl)cc2)nc(C(C)C)c1N,86 to 88
17,CN(C)C(=O)CON(Cc1ccc(F)cc1)C(=O)C1=C(O)C(=O)N(C)C1,147 to 149
18,Fc1ccc(Cl)c2sc(CBr)cc12,89 to 90
19,O=C(O)CCC(C(=O)O)N1C(=O)c2ccccc2C1=S (stereo unspecified),157
20,Cc1ccc(S(=O)(=O)OCC2Cc3cc(C(F)(F)F)cc(Br)c3O2)cc1 (stereo unspecified),95 to 97
21,COC(=O)c1cc(N)c(C(F)(F)F)cc1NC(C)=O,143 to 152
22,CC(C)CN(C=NS(=O)(=O)c1c(Cl)nc2ccc(C3CC3)nn12)CC(C)C,154 to 160

# The next lines start with the values.
row,melting point [°C],Structure (SMILES)
1,168 to 170,CCCc1nc(C)c(C(=O)O)n1Cc1ccc2oc(-c3ccccc3NS(=O)(=O)C(F)(F)F)c(Br)c2c1
2,138 to 140,Cc1onc(-c2ccccc2)c1-c1ccc(S(=O)(=O)NC(=O)CC(C)(C)SN=O)cc1
3,160 to 162,CCNC(=O)C(=CNc1ccc(I)cc1)C(=O)c1ccccc1Cl
4,137,O=C1C=CC(O)(c2ccc3ccccc3c2)C=C1
5,257 to 260,O=C1Cc2c(cc(Br)c3ccccc23)C(c2ccccc2F)N1 (stereo unspecified)
6,160 to 162,O=C(O)CC1c2cc([N+](=O)[O-])ccc2CCN1C(=O)OCc1ccccc1 (stereo unspecified)
7,59 to 61,CC(C)(C)[Si](OCCOc1ccc(N)cn1)(c1ccccc1)c1ccccc1
8,263 to 265,Cc1c(C(=O)O)ccc2c1OC(c1ccccc1)(c1ccccc1)O2
9,237 to 240,CN(C)/C=C/C(=O)c1ccc2n1Cc1ccccc1N(C(=O)c1ccc(C3CCCCC3)cc1)C2
10,167 to 169,Cc1cc(N2C(=O)c3ccccc3C2=O)c(C)cc1N
11,173 to 175,CCCCc1nc2c(N)nc3ccccc3c2n1CCCCCS(C)(=O)=O
12,131 to 134,COC(=O)COc1ccc(C(=O)c2ccccc2)c(O)c1
13,125 to 126,CCCCCN1C(=O)C(NC(=O)c2ccc(Cl)c(Cl)c2)c2ccccc21 (stereo unspecified)
14,228 to 229,O=C(O)Cc1csc(-c2cc3cccc(NS(=O)(=O)c4cccs4)c3[nH]2)n1
15,162 to 164,CCOC(=O)c1ccccc1NC(=O)Nc1ccccc1I
16,278 to 279,Cc1ccc2c(c1)OCc1nc(C(=O)O)cn1-2

row,melting point [°C],Structure (SMILES)
1,258 to 260,O=c1[nH]c2ccccc2cc1CN1CC=C(/C=C/c2ccccc2)CC1
2,140 to 141,CS(=O)(=O)NC(=O)CCc1ccc(OC2CCc3cc(Cl)ccc32)cc1 (stereo unspecified)
3,112 to 114,Cc1ccc(-n2cccc2-c2ccc(S(C)(=O)=O)cc2)cc1
4,95 to 96,COC(=O)c1ccc2occ(-c3ccc(SC)cc3)c2c1
5,216 to 222,Nc1cc(=O)nc(Nc2ccccc2)n1-c1ccc(Cl)cc1
6,221 to 222,O=C(c1ccccc1)c1c(-c2ccccc2)sc2cc(O)ccc12
7,198 to 200,CCOC(=O)NN=C(c1ccc(Cl)cc1)c1ccc(NS(C)(=O)=O)cc1
8,163 to 165,Nc1ccccc1-c1nc2ccccc2c(=O)o1
9,165 to 166,O=C(O)c1cccc(CSCCNC(=O)c2c(Cl)cccc2Cl)c1
10,172 to 173,Cc1ccccc1CC(=NC#N)NC(NC(=O)Cc1ccc2ncccc2c1)C(C)(C)C (stereo unspecified)
11,201 to 202,C=C(c1ccccc1)c1ccc2nc(N)n(S(=O)(=O)N(C)C)c2c1
12,165 to 167,NC(=O)c1nnn(Cc2ccc(C(=O)c3c(Cl)cccc3Cl)cc2)c1N
13,160 to 163,CCN(CC)c1ccc(/C=C/C(=O)CC(=O)/C=C/c2ccc3cc[nH]c3c2)c(OCc2ccccc2)c1
14,191 to 193,COc1ccc(C(=O)Nc2ccccc2)cc1NS(=O)(=O)c1ccc(Cl)c(Cl)c1
15,199 to 200,CCN(CC)CC1CCCN(CC(=O)N2c3ccccc3C(=O)Nc3cccnc32)C1 (stereo unspecified)
